Read-outs that look alike come from different tables or passages of the source.
Assays:
[1] = tested on: SARS-CoV-2-GHB-03021/2020; assay: SARS-CoV-2 Infection Model in Huh7 Cells; type: cell-based; conditions: Severe acute respiratory syndrome coronavirus 2, Huh-7, 96 h, SARS-CoV-2, day 4 p.i., MTS
3CLpro = 3CLpro (Severe acute respiratory syndrome coronavirus 2, UniProt P0DTD1); assay: SARS-CoV-2 3CLpro protease assay (duplex, SAMDI-MS); type: biochemical; parameters: For the duplex assay, 3CLpro and HRV3C was added; conditions: 3CLpro, 30 mins preincubation, class symbols; read-out: SARS-Cov-2 IC50
HRV3C = HRV3C (Human rhinovirus 14, UniProt P03303); assay: HRV3C protease assay (duplex, SAMDI-MS); type: biochemical, HRV; conditions: 30 mins preincubation
How it was run: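 Duplex format with 3CLpro; 30 min enzyme–compound preincubation, 30 min reaction with two peptide substrates, ambient temp. Stop: 0.5% formic acid, neutralized with 1% NaHCO3 (finals). Readout SAMDI-MS, product AUC over internal standard AUC; four-parameter IC50.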

[2] = Cytotoxicity plates without OC43 virus (cell-titer-glo); type: cell-based, human; conditions: human; HeLa cells without OC43 virus, class symbols
How it was run: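 HeLa cells seeded overnight, then treated with serially diluted compounds in 2% FBS EMEM, uninfected, in parallel with the OC43 antiviral plates. Incubated 6 days at 33 °C; viability read by CellTiter-Glo luminescence.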

human cathepsin L = target: T1, human cathepsin L (Homo sapiens, UniProt P07711); assay: cathepsin L assay; type: biochemical; conditions: 10 pM human cathepsin L, Z-FR-AMC 2 μM, class symbols
T1 construct: purchased R&D Systems
How it was run: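 Human cathepsin L at 10 pM was preincubated 30 min with compound, then reaction started with Z-FR-AMC (2 μM final). Fluorescence (355/460 nm) read every 2 min for 30 min; IC50 from four-parameter curve fit.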

[3] = tested on: human beta-coronavirus OC43; assay: microbe, parasite or virus in culture; type: cell-based; conditions: Betacoronavirus 1, OC43, HeLa, 144 h
in vitro [4] = conditions: human
in vitro [5] = conditions: African green monkey, VeroE6 + CP (CC50), Vero E6-eGFP cells with CP-100356, absence of virus, MTS
[6] = tested on: SARS-CoV-2-GHB-03021/2020; assay: microbe, parasite or virus in culture; type: cell-based; conditions: Severe acute respiratory syndrome coronavirus 2, Vero C1008, 96 h; read-out: VeroE6 + CP (EC50)
[7] = HRV3C, class symbols, read-out: HRV IC50
[8] = OC43 in HeLa cells, 6 days at 33° C., class symbols, read-out: EC50
[9] = HRV3C, bound, read-out: HRV IC50

SMILES	EC50 ([1]; class symbols) [µM]	IC50 (3CLpro) [µM]	IC50 (HRV3C; [7]) [µM]	CC50 at 6 days [2] [µM]	IC50 (human cathepsin L) [µM]	EC50 [3, 8] [µM]	CC50 (in vitro [4]) [µM]	CC50 (in vitro [5]; numeric bounds) [µM]	EC50 [6] [µM]	IC50 (HRV3C; HRV IC50, HRV3C, class symbols) [µM]	EC50 [3] [µM]	CC50 (in vitro [5]; class symbols) [µM]	IC50 (HRV3C; HRV IC50, HRV3C, bound) [µM]	IC50 (HRV3C; [9]) [µM]	EC50 ([1]; numeric bounds) [µM]	EC50 ([3]; OC43 in HeLa cells, 6 days at 33° C., bound, read-out: EC50) [µM]
O=C1NCC[C@H]1C[C@H](NC(=O)[C@@H]1[C@H]2CCC[C@H]2CN1C(=O)c1ccc(-c2ccccc2)[nH]1)C(=O)CO [Compound 144, (1S,3aR,6aS)—N-[(2S)-4-hydroxy-3-oxo-1-[(3S)-2-oxopyrrolidin-3-yl]butan-2-yl]-2-(5-phenyl-1H-pyrrole-2-carbonyl)-hexahydro-1H-cyclopenta[c]pyrrole-1-carboxamide]	1 to 10	0.02 to 0.2	2 to 20	> 10	≥ 10	0.1 to 1	> 10	> 50	< 1							
O=C(NC1CC1)C(=O)[C@H](C[C@@H]1CCNC1=O)NC(=O)[C@@H]1CC2(CCN1C(=O)c1cc3c(Cl)cccc3[nH]1)CC2 [Compound 145]	10 to 100	< 0.02	0.02 to 0.2	> 10	0.1 to 1	1 to 10	> 50	> 50	10 to 100							
Cc1ccc2[nH]c(C(=O)N3CCC4(CC4)C[C@H]3C(=O)N[C@@H](C[C@@H]3CCNC3=O)C(=O)C(=O)NC3CC3)cc2c1 [Compound 146]	1 to 10	< 0.02	2 to 20	> 10	1 to 10	0.1 to 1	> 10	> 50	1 to 10							
O=C(NC1CC1)C(=O)[C@H](C[C@@H]1CCNC1=O)NC(=O)[C@@H]1CC2(CCN1C(=O)c1cc3cc(F)ccc3[nH]1)CC2 [Compound 147]	10 to 100	< 0.02	2 to 20	> 10	≥ 10	0.1 to 1	> 50	> 50	10 to 100							
O=C(NC1CC1)C(=O)[C@H](C[C@@H]1CCNC1=O)NC(=O)[C@@H]1[C@H]2CCC[C@H]2CN1C(=O)c1cc2c(Cl)cc(Cl)cc2[nH]1 [Compound 148]	< 1	0.02 to 0.2	0.2 to 2	> 10	≥ 10	0.1 to 1	> 10	> 50	< 1							
CC(C)COCCNC(=O)C(=O)[C@H](C[C@@H]1CCNC1=O)NC(=O)[C@@H]1[C@H]2CCC[C@H]2CN1C(=O)c1cc2c(Cl)cc(Cl)cc2[nH]1 [Compound 149, (1S,3aR,6aS)-2-(4,6-dichloro-1H-indole-2-carbonyl)-N—((S)-4-((2-isobutoxyethyl)amino)-3,4-dioxo-1-((S)-2-oxopyrrolidin-3-yl)butan-2-yl)octahydrocyclopenta[c]pyrrole-1-carboxamide]	< 1	0.02 to 0.2		> 10	1 to 10		1 to 10		< 1	2 to 20	0.1 to 1	> 10				
COc1cccc2[nH]c(C(=O)N3C[C@@H]4CCC[C@@H]4[C@H]3C(=O)N[C@@H](C[C@@H]3CCNC3=O)C(=O)CO)c(F)c12 [Compound 151, (1S,3aR,6aS)-2-(3-fluoro-4-methoxy-1H-indole-2-carbonyl)-N—((S)-4-hydroxy-3-oxo-1-((S)-2-oxopyrrolidin-3-yl)butan-2-yl)octahydrocyclopenta[c]pyrrole-1-carboxamide]	1 to 10	0.02 to 0.2		> 10	≥ 10		> 50	> 50	10 to 100		1 to 10		> 10			
CC(F)(F)c1cccc2[nH]c(C(=O)N3C[C@@H]4CCC[C@@H]4[C@H]3C(=O)N[C@@H](C[C@@H]3CCNC3=O)C(=O)CO)cc12 [Compound 152, (1S,3aR,6aS)-2-[4-(1,1-difluoroethyl)-1H-indole-2-carbonyl]-N-[(2S)-4-hydroxy-3-oxo-1-[(3S)-2-oxopyrrolidin-3-yl]butan-2-yl]-hexahydro-1H-cyclopenta[c]pyrrole-1-carboxamide]	10 to 100	0.02 to 0.2		> 10	≥ 10	1 to 10	> 50	> 50	10 to 100					> 10		
CNc1cccc2[nH]c(C(=O)N3C[C@@H]4CCC[C@@H]4[C@H]3C(=O)N[C@@H](C[C@@H]3CCNC3=O)C(=O)CO)cc12 [Compound 153, (1S,3aR,6aS)—N-[(2S)-4-hydroxy-3-oxo-1-[(3S)-2-oxopyrrolidin-3-yl]butan-2-yl]-2-[4-(methylamino)-1H-indole-2-carbonyl]-hexahydro-1H-cyclopenta[c]pyrrole-1-carboxamide]	10 to 100	0.02 to 0.2		> 10	≥ 10	1 to 10	> 10	> 50	10 to 100					> 10		
CSc1cccc2[nH]c(C(=O)N3C[C@@H]4CCC[C@@H]4[C@H]3C(=O)N[C@@H](C[C@@H]3CCNC3=O)C(=O)CO)cc12 [Compound 154, (1S,3aR,6aS)—N—((S)-4-hydroxy-3-oxo-1-((S)-2-oxopyrrolidin-3-yl)butan-2-yl)-2-(4-(methylthio)-1H-indole-2-carbonyl)octahydrocyclopenta[c]pyrrole-1-carboxamide]	< 1	< 0.02	2 to 20	> 10	≥ 10	0.1 to 1	> 50	> 50	1 to 10							
CS(=O)(=O)Oc1cccc2[nH]c(C(=O)N3C[C@@H]4CCC[C@@H]4[C@H]3C(=O)N[C@@H](C[C@@H]3CCNC3=O)C(=O)CO)cc12 [Compound 155, 2-[(1S,3aR,6aS)-1-{[(2S)-4-hydroxy-3-oxo-1-[(3S)-2-oxopyrrolidin-3-yl]butan-2-yl]carbamoyl}-hexahydro-1H-cyclopenta[c]pyrrole-2-carbonyl]-1H-indol-4-yl methanesulfonate]		0.02 to 0.2		> 10	≥ 10	1 to 10	> 50	> 50	10 to 100					> 10	> 50	
O=C1NCC[C@H]1C[C@H](NC(=O)[C@@H]1[C@H]2CCC[C@H]2CN1C(=O)c1cc2c(Cl)ccc(Cl)c2[nH]1)C(=O)CO [Compound 156, (1S,3aR,6aS)-2-(4,7-dichloro-1H-indole-2-carbonyl)-N-[(2S)-4-hydroxy-3-oxo-1-[(3S)-2-oxopyrrolidin-3-yl]butan-2-yl]-hexahydro-1H-cyclopenta[c]pyrrole-1-carboxamide]	< 1	< 0.02		> 10	≥ 10	0.1 to 1	> 50	> 50	< 1					> 10		
COc1cc(Cl)c(Cl)c2[nH]c(C(=O)N3C[C@@H]4CCC[C@@H]4[C@H]3C(=O)N[C@@H](C[C@@H]3CCNC3=O)C(=O)CO)cc12 [Compound 158, (1S,3aR,6aS)-2-(6,7-dichloro-4-methoxy-1H-indole-2-carbonyl)-N-[(2S)-4-hydroxy-3-oxo-1-[(3S)-2-oxopyrrolidin-3-yl]butan-2-yl]-hexahydro-1H-cyclopenta[c]pyrrole-1-carboxamide]	< 1	< 0.02	2 to 20	> 10	≥ 10	0.1 to 1	> 10	> 50	< 1							
O=C1NCC[C@H]1C[C@H](NC(=O)[C@@H]1[C@H]2CCC[C@H]2CN1C(=O)c1cc2c([nH]1)CCS2(=O)=O)C(=O)CO [Compound 159, (1S,3aR,6aS)-2-{1,1-dioxo-2H,3H,4H-1λ6-thieno[3,2-b]pyrrole-5-carbonyl}-N-[(2S)-4-hydroxy-3-oxo-1-[(3S)-2-oxopyrrolidin-3-yl]butan-2-yl]-hexahydro-1H-cyclopenta[c]pyrrole-1-carboxamide]		0.02 to 0.2		> 10	≥ 10		> 50	> 50	10 to 100					> 10	> 10	> 10

Source: patent publication US11952365B2, “Anti-viral compounds” (Aligos Therapeutics, Inc., priority 2020, dated 2024)
